# Assays:
# [1] = tested on: T84 human colon carcinoma cells; type: cell-based
# [2] = tested on: VASP Ser157 and Ser239 phosphorylation in T84 and HCT116 colon cancer cells; type: cell-based, human
structure (smiles),measurement,setting,value
Nc1nc2c(nc(Br)n2[C@@H]2O[C@@H]3COP(=O)(O)O[C@H]3[C@H]2O)c(=O)[nH]1 [8-br-cGMP],Filopodia frequency and length,[1],impaired
same,VASP phosphorylation at Ser157 and Ser239,[2],mimicked
